Experimental data: patent publication US10336691B2, “Pesticidally active oxime and hydrazone derivatives” (Syngenta Participations AG, priority 2015, dated 2019)
Where two headings read alike, the source gives them in different places.

Key:
Type in all cases: in vivo
Spodoptera littoralis = Spodoptera littoralis (Egyptian cotton leaf worm) cotton leaf disc spray test, L1 larvae; conditions: foliar, 72 h, read-out: control (at least one of mortality, anti-feedant effect, and growth inhibition)
Description: Spodoptera littoralis (Egyptian Cotton Leaf Worm)
Cotton leaf discs were placed on agar in 24-well microtiter plates and sprayed with aqueous test solutions prepared from 10,000 ppm DMSO stock solutions. After drying, the leaf discs were infested with five L1 larvae. The samples were assessed for mortality, anti-feedant effect, and growth inhibition in comparison to untreated samples 3 days after infestation. Control of Spodoptera littoralis by a test sample is when at least one of mortality, anti-feedant effect, and growth inhibition is higher than the untreated sample.

Plutella xylostella = Plutella xylostella (diamond back moth) artificial diet test, L2 larvae; conditions: 120 h, read-out: effect in at least one of the two categories (mortality or growth inhibition); for percent effect (mortality or growth inhibition) at 200 ppm: application rate of 200 ppm, 5 days after infestation, in comparison to untreated samples
Description: Plutella xylostella (Diamond Back Moth)
(§1) 24-well microtiter plates with artificial diet were treated with aqueous test solutions prepared from 10,000 ppm DMSO stock solutions by pipetting. After drying, the plates were infested with L2 larvae (10 to 15 per well). The samples were assessed for mortality and growth inhibition in comparison to untreated samples 5 days after infestation.

Diabrotica balteata = Diabrotica balteata (corn root worm) maize sprout spray test, L2 larvae; conditions: 96 h, read-out: effect in at least one of the two categories (mortality or growth inhibition); for percent effect (mortality or growth inhibition) at 200 ppm: application rate of 200 ppm, 4 days after infestation, in comparison to untreated samples
Description: Diabrotica balteata (Corn Root Worm)
as §1, with “Maize sprouts, placed on an agar layer in 24-well” for “24-well”, “plates” for “plates with artificial diet”, “spraying.” for “pipetting.”, “(6” for “(10”, “10” for “15”, “4” for “5”

[1] = application rate of 200 ppm, 3 days after infestation, in comparison to untreated samples

Cc1cccc(C)c1NC(=O)N/N=C/c1ccc(O/N=C2\CCc3cc(OC(F)(F)F)ccc32)cc1 [Compound 1, 1-(2,6-dimethylphenyl)-3-[[4-[[5-(trifluoromethoxy)indan-1-ylidene]amino]oxyphenyl]methylene-amino]urea]
mortality at 200 ppm (Spodoptera littoralis; [1]): ≥ 80%
percent effect (mortality or growth inhibition) at 200 ppm (Plutella xylostella): ≥ 80%
percent effect (mortality or growth inhibition) at 200 ppm (Diabrotica balteata): ≥ 80%

C/C(=N\Oc1ccc(/C=N/OC(=O)Nc2c(C)cccc2C)cc1)c1ccc(OC(F)(F)F)cc1 [Compound 2, [[4-[1-[4-(trifluoromethoxy)phenyl]ethylidene-amino]oxyphenyl]methyleneamino] N-(2,6-dimethylphenyl) carbamate]
mortality at 200 ppm (Spodoptera littoralis): ≥ 80%
percent control (mortality or growth inhibition) at 200 ppm (Plutella xylostella): ≥ 80%
percent control (mortality or growth inhibition) at 200 ppm (Diabrotica balteata): ≥ 80%

C/C(=N\Nc1ccc(/C=N/NC(=S)Nc2c(C)cccc2C)cc1)c1ccc(OC(F)(F)F)cc1 [Compound 3, 1-(2,6-dimethylphenyl)-3-[[4-[2-[1-[4-(trifluoromethoxy)phenyl]ethylidene] hydrazino]phenyl]methyleneamino] thiourea]
mortality at 200 ppm (Spodoptera littoralis; [1]): ≥ 80%
percent effect (mortality or growth inhibition) at 200 ppm (Plutella xylostella): ≥ 80%
percent effect (mortality or growth inhibition) at 200 ppm (Diabrotica balteata): ≥ 80%

CC(C)c1ccccc1NC(=O)N/N=C/c1ccc(O/N=C2\CCc3cc(OC(F)(F)F)ccc32)cc1 [Compound 4, 1-(2-isopropylphenyl)-3-[[4-[[5-(trifluoromethoxy)indan-1-ylidene]amino]oxyphenyl]methylene-amino]urea]
mortality at 200 ppm (Spodoptera littoralis; [1]): ≥ 80%
percent effect (mortality or growth inhibition) at 200 ppm (Plutella xylostella): ≥ 80%
percent effect (mortality or growth inhibition) at 200 ppm (Diabrotica balteata): ≥ 80%

CC(C)c1ccccc1NC(=S)N/N=C/c1ccc(O/N=C2\CCc3cc(OC(F)(F)F)ccc32)cc1 [Compound 5, 1-(2-isopropylphenyl)-3-[[4-[[5-(trifluoromethoxy)indan-1-ylidene]amino]oxyphenyl]methylene-amino]thiourea]
mortality at 200 ppm (Spodoptera littoralis; [1]): ≥ 80%
percent effect (mortality or growth inhibition) at 200 ppm (Plutella xylostella): ≥ 80%
percent effect (mortality or growth inhibition) at 200 ppm (Diabrotica balteata): ≥ 80%

C/C(=N\Oc1ccc(/C=N/NC(=O)Nc2ccccc2C(C)C)cc1)c1ccc(OC(F)(F)F)cc1 [Compound 6, 1-(2-isopropylphenyl)-3-[[4-[1-[4-(trifluoromethoxy)phenyl]ethylidene-amino]oxyphenyl]methylene-amino]urea]
percent effect (mortality or growth inhibition) at 200 ppm (Plutella xylostella): ≥ 80%
percent effect (mortality or growth inhibition) at 200 ppm (Diabrotica balteata): ≥ 80%

C/C(=N\Oc1ccc(/C=N/NC(=O)Nc2c(C)cccc2C)cc1)c1ccc(OC(F)(F)F)cc1 [Compound 7, 1-(2,6-dimethylphenyl)-3-[[4-[1-[4-(trifluoromethoxy)phenyl]ethylidene-amino]oxyphenyl]methylene-amino]urea]
mortality at 200 ppm (Spodoptera littoralis; [1]): ≥ 80%
percent effect (mortality or growth inhibition) at 200 ppm (Plutella xylostella): ≥ 80%
percent effect (mortality or growth inhibition) at 200 ppm (Diabrotica balteata): ≥ 80%

C/C(=N\Oc1ccc(/C=N/NC(=S)Nc2ccccc2C(C)C)cc1)c1ccc(OC(F)(F)F)cc1 [Compound 8, 1-(2-isopropylphenyl)-3-[[4-[1-[4-(trifluoromethoxy)phenyl]ethylidene-amino]oxyphenyl]methylene-amino]thiourea]
percent effect (mortality or growth inhibition) at 200 ppm (Plutella xylostella): ≥ 80%
percent effect (mortality or growth inhibition) at 200 ppm (Diabrotica balteata): ≥ 80%

Cc1cccc(C)c1NC(=S)N/N=C/c1ccc(O/N=C2\CCc3cc(OC(F)(F)F)ccc32)cc1 [Compound 9, 1-(2,6-dimethylphenyl)-3-[[4-[[5-(trifluoromethoxy)indan-1-ylidene]amino]oxyphenyl]methylene-amino]thiourea]
mortality at 200 ppm (Spodoptera littoralis; [1]): ≥ 80%
percent effect (mortality or growth inhibition) at 200 ppm (Plutella xylostella): ≥ 80%
percent effect (mortality or growth inhibition) at 200 ppm (Diabrotica balteata): ≥ 80%

C/C(=N\Oc1ccc(/C=N/NC(=S)Nc2c(C)cccc2C)cc1)c1ccc(OC(F)(F)F)cc1 [Compound 10, 1-(2,6-dimethylphenyl)-3-[[4-[1-[4-(trifluoromethoxy)phenyl]ethylidene-amino]oxyphenyl]methylene-amino]thiourea]
mortality at 200 ppm (Spodoptera littoralis; [1]): ≥ 80%
percent effect (mortality or growth inhibition) at 200 ppm (Plutella xylostella): ≥ 80%
percent effect (mortality or growth inhibition) at 200 ppm (Diabrotica balteata): ≥ 80%

Cc1cccc(C)c1NC(=S)N/N=C/c1ccc(N/N=C2\CCc3cc(OC(F)(F)F)ccc32)cc1 [Compound 11, 1-(2,6-dimethylphenyl)-3-[[4-[2-[5-(trifluoromethoxy)indan-1-ylidene]hydrazino]phenyl]methylene-amino]thiourea]
mortality at 200 ppm (Spodoptera littoralis; [1]): ≥ 80%
percent effect (mortality or growth inhibition) at 200 ppm (Plutella xylostella): ≥ 80%
percent effect (mortality or growth inhibition) at 200 ppm (Diabrotica balteata): ≥ 80%

C/C(=N\Nc1ccc(/C=N/OC(=O)Nc2c(C)cccc2C)cc1)c1ccc(C(F)(F)F)cc1 [Compound 12, [[4-[2-[1-[4-(trifluoromethyl)phenyl]ethylidene] hydrazino]phenyl]methyleneamino] N-(2,6-dimethylphenyl)carbamate]
percent control (mortality or growth inhibition) at 200 ppm (Diabrotica balteata): ≥ 80%

C/C(=N\Nc1ccc(/C=N/NC(=O)Nc2ccccc2C(C)C)cc1)c1cccc(OC(F)(F)F)c1 [Compound 13, 1-(2-isopropylphenyl)-3-[[4-[2-[1-[3-(trifluoromethoxy)phenyl]ethylidene] hydrazino]phenyl]methyleneamino] urea]
percent effect (mortality or growth inhibition) at 200 ppm (Diabrotica balteata): ≥ 80%

C/C(=N\Nc1ccc(/C=N/NC(=S)Nc2ccccc2C(C)C)cc1)c1cccc(OC(F)(F)F)c1 [Compound 14, 1-(2-isopropylphenyl)-3-[[4-[2-[1-[3-(trifluoromethoxy)phenyl]ethylidene] hydrazino]phenyl]methyleneamino] thiourea]
percent effect (mortality or growth inhibition) at 200 ppm (Plutella xylostella): ≥ 80%
percent effect (mortality or growth inhibition) at 200 ppm (Diabrotica balteata): ≥ 80%

C/C(=N\Nc1ccc(/C=N/NC(=O)Nc2c(C)cccc2C)cc1)c1cccc(OC(F)(F)F)c1 [Compound 15, 1-(2,6-dimethylphenyl)-3-[[4-[2-[1-[3-(trifluoromethoxy)phenyl]ethylidene]hydrazino]phenyl]methylene-amino]urea]
percent effect (mortality or growth inhibition) at 200 ppm (Plutella xylostella): ≥ 80%

C/C(=N\Nc1ccc(/C=N/NC(=S)Nc2c(C)cccc2C)cc1)c1cccc(OC(F)(F)F)c1 [Compound 16, 1-(2,6-dimethylphenyl)-3-[[4-[2-[1-[3-(trifluoromethoxy)phenyl]ethylidene] hydrazino]phenyl]methylene-amino]thiourea]
percent effect (mortality or growth inhibition) at 200 ppm (Plutella xylostella): ≥ 80%
percent effect (mortality or growth inhibition) at 200 ppm (Diabrotica balteata): ≥ 80%

C/C(=N\Nc1ccc(/C=N/NC(=S)Nc2c(C)cccc2C)cc1)c1ccccc1OC(F)(F)F [Compound 18, 1-(2,6-dimethylphenyl)-3-[[4-[2-[1-[2-(trifluoromethoxy)phenyl]ethylidene] hydrazino]phenyl]methylene-amino]thiourea]
percent effect (mortality or growth inhibition) at 200 ppm (Plutella xylostella): ≥ 80%

C/C(=N\Nc1ccc(/C=N/NC(=O)Nc2ccccc2C(C)C)cc1)c1ccc(C(F)(F)F)cc1 [Compound 19, 1-(2-isopropylphenyl)-3-[(E)-[4-[(2E)-2-[1-[4-(trifluoromethyl)phenyl]ethylidene] hydrazino]phenyl]methyleneamino] urea]
percent effect (mortality or growth inhibition) at 200 ppm (Plutella xylostella): ≥ 80%
percent effect (mortality or growth inhibition) at 200 ppm (Diabrotica balteata): ≥ 80%

C/C(=N\Nc1ccc(/C=N/NC(=S)Nc2ccccc2C(C)C)cc1)c1ccccc1OC(F)(F)F [Compound 23, 1-(2-isopropylphenyl)-3-[(E)-[4-[(2E)-2-[1-[2-(trifluoromethoxy)phenyl]ethylidene] hydrazino]phenyl]methylene-amino]thiourea]
percent effect (mortality or growth inhibition) at 200 ppm (Plutella xylostella): ≥ 80%

CC/C(=N\Nc1ccc(/C=N/NC(=O)Nc2ccccc2C(C)C)cc1)c1ccc(C(F)(F)F)cc1 [Compound 25, 1-(2-isopropylphenyl)-3-[(E)-[4-[(2E)-2-[1-[4-(trifluoromethyl)phenyl]propylidene] hydrazino]phenyl]methyleneamino] urea]
percent effect (mortality or growth inhibition) at 200 ppm (Plutella xylostella): ≥ 80%
percent effect (mortality or growth inhibition) at 200 ppm (Diabrotica balteata): ≥ 80%

C/C(=N\Nc1ccc(/C=N/NC(=O)Nc2c(C)cccc2C)cc1)c1ccc(OC(F)F)cc1 [Compound 29, 1-[[4-[2-[1-[4-(difluoromethoxy)phenyl]ethylidene] hydrazino]phenyl]methyleneamino]-3-(2,6-dimethylphenyl)urea]
mortality at 200 ppm (Spodoptera littoralis; [1]): ≥ 80%
percent effect (mortality or growth inhibition) at 200 ppm (Plutella xylostella): ≥ 80%

FC(F)(F)Oc1ccc2c(c1)CC/C2=N\Oc1ccc(/C=N/NC(=S)Nc2ccccc2C(F)(F)F)cc1 [Compound 30, 1-[[4-[[5-(trifluoromethoxy)indan-1-ylidene]amino]oxyphenyl]methylene-amino]-3-[2-(trifluoromethyl)phenyl]thiourea]
percent effect (mortality or growth inhibition) at 200 ppm (Diabrotica balteata): ≥ 80%

C/C(=N\Oc1ccc(/C=N/NC(=S)Nc2ccccc2C(F)(F)F)cc1)c1ccc(OC(F)(F)F)cc1 [Compound 31, 1-[[4-[1-[4-(trifluoromethoxy)phenyl]ethylidene-amino]oxyphenyl]methylene-amino]-3-[2-(trifluoromethyl)phenyl]thiourea]
percent effect (mortality or growth inhibition) at 200 ppm (Diabrotica balteata): ≥ 80%
